Assay results as given in patent US20130142877A1, “PHARMACEUTICAL DOSAGE FORM COMPRISING ONE OR MORE ANTIRETROVIRAL ACTIVE INGREDIENTS” (EVONIK ROEHM GmbH, priority 2010, published 2013).

Experiment: Crystallinity analysis by X-ray diffraction (XRD)
Assay type: physicochemical
Settings: pure API or extrudate after melt extrusion
Protocol: The mixtures of examples 1 to 4 were extrudated, comminuted and subsequently sifted through a sieve of 40 mesh (0.42 mm) and analyzed. X-ray diffraction analysis was carried out for crytallinity. Dissolution rate analysis of both active compound was carried out to check solubility enhancement.

Compound | Crystallinity by X-ray diffraction (XRD pattern)
Cc1cccc(C)c1OCC(=O)N[C@@H](Cc1ccccc1)[C@@H](O)C[C@H](Cc1ccccc1)NC(=O)[C@H](C(C)C)N1CCCNC1=O [Lopinavir] | crystalline form
CC(C)c1nc(CN(C)C(=O)N[C@H](C(=O)N[C@@H](Cc2ccccc2)C[C@H](O)[C@H](Cc2ccccc2)NC(=O)OCc2cncs2)C(C)C)cs1 [Ritonavir] | crystalline form
